Assay results taken from EP0273199A2, “Uses of 3,4-diphenyl piperidine derivatives or medicines, 3,4-diphenyl piperidine derivatives, and process for their preparation” (LABORATOIRES HOECHST S.A., priority 1986, dated 1988).
Several values for one entry are separate records, joined by “and”; a condition that tells them apart may be missing. Equal entries are not always repeated. Structures can show the parent of a compound that is named as a salt. Where two headings read alike, the source gives them in different places.

How the values were obtained:
[1] = tested on: Motoraktivität; assay: Actimetry (motor activity, photocell actimeter); format: in vivo, Maus
Source text: Die Motoraktivität wird mittels Photozellenaktimetern bestimmt (Boissier und Simon, Arch. Int. Pharmacodyn. 1965, 158, 212-221).
Die Mäuse (10 oder ein Vielfaches von 10 pro Gruppe) werden unmittelbar nach i.p. Verabreichung der zu untersuchenden Verbindungen in das Aktimeter eingesetzt. Die Motoraktivität wird danach bis zur 60. Minute gemessen. De Zähler werden nach 30 Minuten abgelesen und dann auf 0 zurückgestellt und im Verlauf von 30 Minuten alle 10 Minuten abgelesen.
Die Beweglichkeit der mit den verschiedenen Verbindungen behandelten Tiere wird mit derjenigen einer destilliertes Wasser erhaltenden Kontrollgruppe verglichen.
Die eine psychostimulierende Aktivität besitzenden Produkte verursachen eine Zunahme der Beweglichkeit.

[2] = tested on: Maus; assay: Behavioural despair test (Porsolt forced swimming); format: in vivo; conditions: mouse; for Dauer der Unbeweglichkeit: 30 min before test
Source text: Test auf verzweifeltes Verhalten, wie von Porsolt u.a. (Arch. Int, Pharmacodyn. Ther. 229, 327 - 336, 1977) beschrieben.
Die Verbindungen werden intraperetoneal 30 Minuten vor dem Test verabreicht, und die Tiere werden vor dem erzwungenen Schwimmtest isoliert gehalten. Man bewertet die Dauer der Unbeweglichkeitsperioden in Sekunden ausgedrückt, die von der 2. bis zur 6. Minute nach dem Einsetzen des Tieres in Wasser gezählt werden.

[3] = tested on: Maus; assay: Tail suspension test; format: in vivo; conditions: for minimal effective dose: ip; for % Antagonismus / Dauer der Unbeweglichkeit: mouse
Source text: Schwanzaufhängungstest an der Maus wie von Stéru u.a. beschrieben (Psychopharmacology 85, 367-370, 1985).
Die Substanzen werden intraperitoneal 30 Minuten vor dem Test verabreicht und die Tiese isoliert (10 Mäuse pro Dosis).
Man bewertet die Dauer der Unbeweglichkeit, ausgedrückt in Sekunden über die 6 Minuten des Tests. Man untersucht auf eine Verkürzung dieser Unbeweglichkeitszeit.

[4] = tested on: L-5-Hydroxytryptophan; assay: Potentiation of L-5-hydroxytryptophan effects (head twitches, tremor); format: in vivo, Maus; conditions: mouse
Experimental: L-5 HTP induziert an der Maus ruckartige Bewegungen des Kopfes (Kopfzuckungen). Die zu untersuchenden Substanzen werden den Tieren (10 Mäuse pro Dosis) intraperitoneal 30 Minuten vor dem L-5 HTP (4 mg/kg intraperitoneal) verabreicht. Die ruckartigen Kopfbewegungen und der Tremor werden 1 Minutre lang alle 10 Minuten im Verlauf einer Stunde bewertet. Desimipramin und Indalpin sind die Kontrol-(Vergleichs-)verbindungen. Ein antidepressiver Effekt zeigt sich durch eine Zunahme der ruckartigen Kopfbewegungen und des Tremors.

[5] = tested on: Maus; assay: Hot plate test (licking and jumping), analgesia; format: in vivo
Experimental: Heizplattentest: Lecken und Springen, wie von Jacob und Blozovski beschrieben (Arch. Int. Pharmacodyn. 133, 296-209, 1961).
Die in Sekunden ausgedrückten Reaktionszeiten auf einer Heizplatte werden unter Berücksichtigung des Leckens der Vorderpfoten und Springen des Tieres als Kriterien bewertet. Die beiden Reaktionen werden am selben, anfänglich untrainierten Tier mit einer maximalen Ansprechzeit (Obergrenze) von 240 Sekunden beobachtet. Die Temperatur der Platte wird auf 56,6°C gehalten.
Morphin als positive Kontrolle wird subkutan und die übrigen Substanzen (mg/kg) werden intraperitoneal 30 Minuten vor dem Test verabreicht. Positives Ansprechen zeigt sich in einer Zunahme der Reaktionszeit.
Wird der schadensverhütenden Wirkung eine Substanz durch Naloxon entegengewirkt, so kann man schließen, daß die Substanz tatsächlich eine analgetische Wirkung besitzt.

[6] = tested on: durch Reserpin induzierten Hypothermie; assay: Antireserpine activity (reserpine-induced hypothermia); format: in vivo, Maus; conditions: ip
Experimental: Zur Zeit 0 erhalten die Mäuse intraperitoneal Reserpin (2,5 mg/kg).
4 Stunden danach, wenn die Hypothermie genügend stark erscheint (30 bis 33°C), verabreicht man die verschiedenen zu untersuchenden Verbindungen i.p. oder p.o. Alle 30 Minuten über einen Zeitraum von 2 Stunden mißt man die Rektaltemperatur mit einer auf konstante Tiefe eingeführten, ein Thermoelement tragenden Sonde. Die Rektaltemperatur der mit verschiedenen erfindungsgemäßen Verbindungen behandelten Tiere wird mit der Temperatur einer Kontrollgruppe verglichen, die destilliertes Wasser auf die gleiche Weise wie die untersuchten Verbindungen erhält.
Die Akinesie (fehlende Bewegungen) und Ptose (Öffnungsgrad des Augenlids von 0 bis 4 nach Rubin u.a 1957) werden ebenfalls alle 30 Minuten über einen Zeitraum von 2 Stunden bewertet.
Die eine antidepressive Aktivität besitzenden Produkte wirken der durch Reserpin induzierten Hypothermie entgegen. Für jede Dosis der verabreichten Verbindung berechnet man die prozentuale Hemmung der Hypothermie.

[7] = tested on: Apomorphin 16 mg/kg; assay: Antiapomorphine activity (apomorphine 16 mg/kg s.c., hypothermia); format: in vivo, Maus; conditions: ip
Experimental: Zur Zeit 0 nach Ausgleich der Reaktaltemperaturen werden die Mäuse (6 pro Gruppe) in deren Beobachtung gestattende Einzelkäfige (11 x 3,5 x 4 cm) eingeetzt. 30 Minuten nach i.p. bzw. p.o. Verabreichung der Testsubstanz erhalten sie Apomorphin subkutan in einer Dosis von 16 mg/kg. Die Rektaltemperatur wird 30 Minuten nach dem Apomorphin gemessen. Die Kontrolltiere erhalten destilliertes Wasser statt der zu untersuchenden Verbindungen. Die bei diesen Kontrolltieren, die 16 mg/kg Apomorphin erhalten haben, beobachtete Hypothermie liegt im Durchschnitt bei 33°C. Für jede Verbindungsdosis berechnet man die prozentuale Hemmung der Hypothermie.

[8] = tested on: durch Oxotremorin induzierten Hypothermie; assay: Antioxotremorine activity (oxotremorine-induced hypothermia); format: in vivo, Maus; conditions: Mus musculus, ip, read-out: Erste wirksame Dosis Oxotremorin
Experimental: Nach Ausgleich der Rektaltemperaturen erhalten Mäuse (6 pro Gruppe) entweder destillietes Wasser oder die verschiedenen zu untersuchenden Verbindungen i.p.
30 Minuten danach verabreicht man intraperitoneal Oxotremorin in einer Dosis von 0,5 mg/kg.
Die Mäuse werden dan beobachtet: Tremor wird je nach der Intensität von 0 bis 3 bewertet, und die Akinesie wird alle 10 Minuten über einen Zeitraum von 30 Minuten auf Vorliegen oder Fehlen bestimmt.
Außerdem beobachtet man 2 Stunden lang das Erscheinen peripherer Symptome (Tränen, Darmentleerung). Die Rektaltemperatur wird alle 30 Minuten über eine Zeitraum von 2 Stunden nach der Verabreichung des Oxotremorins gemessen.
Die eine antidepressive Aktivität besitzenden Produkte wirken der durch Oxotremorin induzierten Hypothermie entgegen.
Für jede Dosis der Verbindung berechnet man die prozentuale Hemmung der Hypothermie.

[9] = tested on: Toxizität des Yohimbins; assay: Potentiation of yohimbine toxicity; format: in vivo, Maus
Experimental: Wirkung auf die Toxizität des Yohimbins
Zur Zeit 0 erhalten die Mäuse entweder destilliertes Wasser oder verschiedene zu untersuchende Verbindungen i.p. 30 Minuten danach verabreicht man ihnen subkutan eine infratoxische Dosis von 25 mg/kg Yohimbinchlorhydrat.
Die Mortalität wird jede Stunde über einen Zeitraum von 4 Stunden verfolgt und dann nach 24 Stunden notiert.
Die eine antidepressive Aktivität besitzenden Produkte verursachen eine Potenzierung der Toxizität des Yohimbins.

[10] = tested on: Apomorphin 1 mg.kg^-1 s.c.; assay: Apomorphine 1 mg/kg s.c. antagonism (no method given); format: in vivo; conditions: ip, Tabelle Ib; read-out: Erste wirksame Dosis Apomorphin 1 mg.kg^-1 s.c.
[11] = 8 mg/kg i.p., 30 min before L-5 HTP 4 mg/kg i.p.
[12] = mouse, Tabelle 5a, 16 mg/kg, without Naloxon
[13] = mouse, reaction time, 8 mg/kg i.p., plate 56,6°C
[14] = mouse, reaction time, 16 mg/kg i.p., plate 56,6°C, 16 mg/kg
[15] = mouse, reaction time, 32 mg/kg i.p., plate 56,6°C
[16] = 4 mg/kg i.p., 30 min before L-5 HTP 4 mg/kg i.p.

SMILES: c1ccc([C@@H]2CCNC[C@H]2c2ccccc2)cc1 (relative stereo) [DPPT, trans-3,4-Diphenylpiperidin]
- stimulierender Effekt an der Maus ([1]; mouse, 16 mg/kg): keinen stimulierenden Effekt
- minimal effective dose at 16 mg/kg ([2]; ip, Porsolt test, effect stronger at 16 mg/kg, read-out: bedeutsame Abnahme in der Dauer der Unbeweglichkeit, Dosis): ≥ 8 mg/kg
- % Antagonismus ([2]; 8 mg/kg i.p.): 28%
- Dauer der Unbeweglichkeit ([2]; 8 mg/kg i.p.): 141 ± 16 p < 0,02 Sekunden
- % Antagonismus ([2]; 16 mg/kg i.p.): 47%
- Dauer der Unbeweglichkeit ([2]; 16 mg/kg i.p.): 94 ± 17 p < 0,001 Sekunden
- minimal effective dose ([3]; Mus musculus, read-out: bedeutsame Verkürzung der Dauer der Unbeweglichkeit, Dosis): ≥ 2 mg/kg
- % Antagonismus ([3]; 1 mg/kg i.p.): 25%
- Dauer der Unbeweglichkeit ([3]; 1 mg/kg i.p.): 58 ± 13 Sekunden
- % Antagonismus ([3]; 2 mg/kg i.p.): 51%
- Dauer der Unbeweglichkeit ([3]; 2 mg/kg i.p.): 38 ± 7 p < 0,01 Sekunden
- % Antagonismus ([3]; 4 mg/kg i.p.): 79%
- Dauer der Unbeweglichkeit ([3]; 4 mg/kg i.p.): 16 ± 2 p < 0,001 Sekunden
- % Antagonismus ([3]; 16 mg/kg i.p.): 84%
- Dauer der Unbeweglichkeit ([3]; 16 mg/kg i.p.): 12 ± 3 p < 0,001 Sekunden
- minimal effective dose ([4]; ip, read-out: Zunahme der durch L-5 HTP induzierten ruckartigen Kopfbewegungen, Effekt gesichert bei): 8 mg/kg
- Tremor [4, 11]: 1,3 ± 0,4
- ruckartige Kopfbewegungen [4, 11]: 4,7 ± 0,6 p < 0,01
- Tremor ([4]; L-5 HTP potentiation): verstärkt
- minimal effective dose ([5]; Mus musculus, ip, 0.5 h, read-out: Effekt statistisch gesichert bei): 16 mg/kg
- Pfotenlecken [5, 12]: 10,0 ± 1,5 p < 00,1 Sekunden and 7,9 ± 0,6 p < 0,02 Sekunden
- Sprünge [5, 12]: 141 ± 12 p < 0,01 Sekunden and 125 ± 14 p < 0,01 Sekunden
- schadenverhütender Effekt, Wechselwirkung mit Naloxon ([5]; mouse, hot plate): unterliegt Antagonismus durch Naloxon
- Pfotenlecken [5, 13]: 7,0 ± 0,9 Sekunden
- Sprünge [5, 13]: 103 ± 10 Sekunden
- Pfotenlecken [5, 14]: 8,7 ± 1,2 p < 0,02 Sekunden and 9,9 ± 2,0 Sekunden
- Sprünge [5, 14]: 154 ± 11 p < 0,001 Sekunden and 135 ± 14 p < 0,05 Sekunden
- Pfotenlecken [5, 15]: 13,0 ± 1,7 p < 0,01 Sekunden
- Sprünge [5, 15]: 193 ± 17 p < 0,001 Sekunden

SMILES: Clc1ccc([C@@H]2CCNC[C@H]2c2ccccc2)cc1Cl [15 (HCl-Salz)]
- minimal effective dose ([6]; Mus musculus, read-out: Erste wirksame Dosis Reserpin, mouse, i.p., only or lowest value of the cell): 1 mg/kg
- minimal effective dose ([7]; Mus musculus, read-out: Erste wirksame Dosis Apomorphin 16 mg/kg, mouse, i.p., only or lowest value of the cell): 1 mg/kg
- minimal effective dose [8]: 0.25 mg/kg
- Erste wirksame Dosis Yohimbin ([9]; mouse, i.p., only or lowest value of the cell): 1 mg/kg
- Aktimetrie ([1]; mouse, direction of change of motor activity): ↗

SMILES: CNCCCN1c2ccccc2CCc2ccccc21 [DESIPRAMIN, reference compound]
- minimal effective dose ([6]; Tabelle Ib, read-out: Erste wirksame Dosis Reserpin): 0.25 mg/kg
- minimal effective dose ([7]; Tabelle Ib, read-out: Erste wirksame Dosis Apomorphin 16 mg.kg^-1 s.c.): 2 mg/kg
- minimal effective dose ([9]; ip, Tabelle Ib, read-out: Erste wirksame Dosis Yohimbin): 0.5 mg/kg
- Motilität ([1]; i.p., direction of change, Tabelle Ib): ↘
- minimal effective dose ([1]; ip, Tabelle Ib, read-out: Erste wirksame Dosis Motilität): 4 mg/kg
- % Antagonismus ([2]; 8 mg/kg i.p.): 48%
- Dauer der Unbeweglichkeit ([2]; 8 mg/kg i.p.): 105 ± 16 p < 0,001 Sekunden
- minimal effective dose ([3]; Tabelle Ib, read-out: Erste wirksame Dosis T.S.T. Maus): 1 to 4 mg/kg
- Tremor [4, 16]: 0,5 ± 0,2
- ruckartige Kopfbewegungen [4, 16]: 3,8 ± 0,4 p < 0,01
- Pfotenlecken [5, 13]: 8,2 ± 0,5 p < 0,001 Sekunden
- Sprünge [5, 13]: 85 ± 7 Sekunden
- minimal effective dose [10]: > 16 mg/kg
